Experimental data taken from patent US6133287A, “Piperidine-indole compounds having 5-HT6 affinity” (Allelix Biopharmaceuticals Inc., priority 1998, dated 2000).
Structures can show the parent of a compound that is named as a salt. Where two headings read alike, the source gives them in different places.

Tests used:
human 5-HT6 receptor [1] = molecular target: T1, human 5-HT6 receptor (Homo sapiens, UniProt P50406); assay: Effect of compounds on the cAMP response of human 5-HT6 receptors (stably transfected HEK293 cells, cAMP EIA); type: cell-based; set-up: expressed in transfected cells; host or cells: HEK293
T1 sequence (P50406 whole entry): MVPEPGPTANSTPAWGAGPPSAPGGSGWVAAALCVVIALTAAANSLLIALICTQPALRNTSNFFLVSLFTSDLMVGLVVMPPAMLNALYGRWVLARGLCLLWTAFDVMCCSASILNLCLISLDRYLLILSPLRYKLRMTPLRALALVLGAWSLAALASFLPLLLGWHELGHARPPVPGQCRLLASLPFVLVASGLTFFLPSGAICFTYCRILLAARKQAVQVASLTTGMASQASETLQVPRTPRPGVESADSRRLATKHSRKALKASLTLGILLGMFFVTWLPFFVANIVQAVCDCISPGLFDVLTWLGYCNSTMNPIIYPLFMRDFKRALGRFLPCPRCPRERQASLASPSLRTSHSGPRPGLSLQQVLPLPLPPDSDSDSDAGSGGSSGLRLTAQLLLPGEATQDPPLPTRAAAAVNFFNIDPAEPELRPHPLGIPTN
Procedure: The antagonist (or agonist ) property of compounds for human 5-HT6 receptors was determined by testing their effect on cAMP accumulation in stably transfected HEK293 cells.
Human 5-HT6 receptors were cloned and stably expressed in HEK293 cells. These cells were plated in 6 well plates in DMEM/F12 media with 10% fetal calf serum (FCS) and 500 μg/mL G418 and incubated at 37° C. in a CO2 incubator. The cells were allowed to grow to about 70% confluence before initiation of the experiment.
On the day of the experiment, the culture media was removed, and the cells were washed once with serum free medium (SFM). Two mL of SFM+IBMX media was added and incubated at 37° C. for 10 min. The media were removed and fresh SFM+IBMX media containing various compounds, and 1 μM serotonin (as antagonist) were added to the appropriate wells and incubated for 30 min. […]
cAMP content was determined by EIA (enzyme-immunoassay) using the Amersham Biotrak cAMP EIA kit (Amersham RPN 225). […] Briefly, cAMP is determined by the competition between unlabeled cAMP and a fixed quantity of peroxidase-labelled cAMP for the binding sites on anti-cAMP antibody. […] The reaction is stopped by the addition of 100 μL 1.0 M sulfuric acid and the resultant color read by a microtitre plate spectrophotometer at 450 nM within 30 minutes. […]

human 5-HT6 receptor [2] = molecular target: T1, human 5-HT6 receptor; assay: Binding affinity for the 5-HT6 receptor (3H-LSD radioligand binding, membranes of cells expressing the receptor); set-up: expressed in transfected cells; conditions: 60 minute incubation at 37° C.
Procedure: (§1) All of the compounds of the invention were evaluated using cell types receptive specifically to the 5-HT6 receptor (for cloning and characterization of the human 5-HT6 receptor see Kohen, et al. J. Neurochemistry, 66, 1996: 47-56). […] After a 60 minute incubation at 37° C., the incubation was terminated by vacuum filtration. The filters were washed with buffer and the filters were counted for radioactivity using liquid scintillation spectrometry. The affinity of the test compound for the 5-HT6 receptor was determined by computer-assisted analysis of the data and determining the amount of the compound necessary to inhibit 50% of the binding of the radioligand to the receptor. Concentrations ranging from 10^-11 M to 10^-5 M of the test compound were evaluated.

human 5-HT7 receptor = human 5-HT7 receptor (Homo sapiens, UniProt P34969); assay: Selectivity of binding to the human 5-HT6 receptor relative to the human 5-HT7 receptor; conditions: 5-HT6 vs 5-HT7
Sequence of human 5-HT7 receptor (P34969 whole entry): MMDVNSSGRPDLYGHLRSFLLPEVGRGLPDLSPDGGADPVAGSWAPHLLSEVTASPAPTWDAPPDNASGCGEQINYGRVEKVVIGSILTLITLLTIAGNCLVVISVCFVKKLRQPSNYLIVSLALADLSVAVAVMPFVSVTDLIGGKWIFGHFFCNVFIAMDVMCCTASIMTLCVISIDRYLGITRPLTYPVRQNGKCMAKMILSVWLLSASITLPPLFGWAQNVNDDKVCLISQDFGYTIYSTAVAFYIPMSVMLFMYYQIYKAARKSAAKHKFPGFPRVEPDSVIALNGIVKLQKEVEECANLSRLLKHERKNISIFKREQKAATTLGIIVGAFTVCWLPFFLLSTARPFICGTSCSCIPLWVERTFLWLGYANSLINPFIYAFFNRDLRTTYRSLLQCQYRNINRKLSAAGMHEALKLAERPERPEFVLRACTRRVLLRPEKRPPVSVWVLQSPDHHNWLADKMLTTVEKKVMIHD

human 5-HT2c receptor = molecular target: T2, human 5-HT2c receptor (Homo sapiens, UniProt P28335); assay: Selectivity of binding to the human 5-HT6 receptor relative to the human 5-HT2c receptor; conditions: 5-HT6 vs 5-HT2c
T2 sequence (P28335 33-458): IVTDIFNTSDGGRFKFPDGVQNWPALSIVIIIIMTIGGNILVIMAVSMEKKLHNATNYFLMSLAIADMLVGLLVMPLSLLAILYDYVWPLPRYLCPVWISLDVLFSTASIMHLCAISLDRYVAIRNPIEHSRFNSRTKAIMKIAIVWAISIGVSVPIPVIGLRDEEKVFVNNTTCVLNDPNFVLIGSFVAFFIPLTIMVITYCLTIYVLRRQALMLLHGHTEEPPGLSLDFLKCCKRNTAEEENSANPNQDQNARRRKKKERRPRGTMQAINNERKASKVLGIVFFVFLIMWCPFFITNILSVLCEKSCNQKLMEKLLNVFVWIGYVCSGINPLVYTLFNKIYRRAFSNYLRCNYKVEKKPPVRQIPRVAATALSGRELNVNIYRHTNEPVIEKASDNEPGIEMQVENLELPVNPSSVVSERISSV
Procedure: as §1

Row | Structure (SMILES) | Ki (human 5-HT6 receptor [2]; Ki) [nM] | also measured
1 | CN1CC=C(c2cn(S(=O)(=O)c3ccc(F)cc3)c3ccc(F)cc23)CC1 [6 cc] | – | EC50 (human 5-HT6 receptor [1]; read-out: EC50, concentration causing 50% inhibition of the serotonin-stimulated cAMP response, 1 μM serotonin, 30 min): 10 nM
2 | CN1CC=C(c2cn(S(=O)(=O)c3cccc4ccccc34)c3ccc(F)cc23)CC1 [Example 7gg, 5-Fluoro-3-(1-methyl-1,2,3,6-tetrahydro-4-pyridinyl)-1-(1-naphthylsulfonyl)indole] | ≤ 50 | –
3 | CN1CC=C(c2cn(C(=O)c3ccc(F)cc3)c3c(F)cc(F)cc23)CC1 [Example 7ar, 5,7-Difluoro-1-(4-fluorobenzoyl)-3-(1-methyl-1,2,3,6-tetrahydro-4-pyridinyl)indole] | ≤ 5 | –
4 | CN1CC=C(c2cn(C(=O)c3c(Cl)cccc3Cl)c3ccc(C(F)(F)F)cc23)CC1 [Example 7qqq, 1-(2,6-Dichlorobenzoyl)-3-(1-methyl-1,2,3,6-tetrahydro-4-pyridinyl)-5-trifluoromethyl-indole] | ≤ 50 | –
5 | CN1CC=C(c2cn(C(=O)c3cc(Cl)ccc3Cl)c3c(F)cc(F)cc23)CC1 [Example 7as, 1-(2,5-Dichlorobenzoyl)-5,7-difluoro-3-(1-methyl-1,2,3,6-tetrahydro-4-pyridinyl)indole] | ≤ 50 | –
6 | CN1CC=C(c2cn(S(=O)(=O)c3ccc(F)cc3)c3ccc(F)cc23)CC1 [Example 7cc, 1-(4-Fluorophenylsulfonyl)-5-fluoro-3-(1-methyl-1,2,3,6-tetrahydro-4-pyridinyl)indole] | ≤ 5 | –
7 | CN1CC=C(c2cn(C(=O)c3ccccc3Cl)c3ccc(F)cc23)CC1 [Example 6c, 1-(2-Chlorobenzoyl)-5-fluoro-3-(1-methyl-1,2,3,6-tetrahydro-4-pyridinyl)indole] | ≤ 5 | –
8 | CN1CC=C(c2cn(C(=O)c3c(Cl)cccc3Cl)c3ccc(F)cc23)CC1 [Example 6f, 1-(2,6-Dichlorobenzoyl)-5-fluoro-3-(1-methyl-1,2,3,6-tetrahydro-4-pyridinyl)indole] | ≤ 5 | –
9 | CN1CC=C(c2cn(S(=O)(=O)c3ccc(Cl)cc3)c3ccc(F)cc23)CC1 [Example 7dd, 1-(4-Chlorophenylsulfonyl)-5-fluoro-3-(1-methyl-1,2,3,6-tetrahydro-4-pyridinyl)indole] | – | greater affinity for human 5-HT6 receptor relative to human 5-HT7 receptor (human 5-HT7 receptor): ≥ 60 fold; greater affinity for human 5-HT6 receptor relative to human 5-HT2c receptor (human 5-HT2c receptor): ≥ 60 fold
10 | Cc1ccc(S(=O)(=O)n2cc(C3=CCN(C)CC3)c3cc(OC4CCCCC4)ccc32)cc1 [Example 7i, 5-Cyclohexyloxy-1-(4-methylphenylsulfonyl)-3-(1-methyl-1,2,3,6-tetrahydro-4-pyridinyl)indole] | – | greater affinity for human 5-HT6 receptor relative to human 5-HT7 receptor (human 5-HT7 receptor): ≥ 60 fold; greater affinity for human 5-HT6 receptor relative to human 5-HT2c receptor (human 5-HT2c receptor): ≥ 60 fold
11 | CN1CC=C(c2cn(S(=O)(=O)c3ccccc3)c3cc(Br)ccc23)CC1 [Example 7j, 6-Bromo-3-(1-methyl-1,2,3,6-tetrahydro-4-pyridinyl)-1-phenylsulfonylindole] | ≤ 50 | –
12 | CN1CC=C(c2cn(S(=O)(=O)c3ccccc3)c3ccc(OC4CCCCC4)cc23)CC1 [Example 7m, 5-Cyclohexyloxy-3-(1-methyl-1,2,3,6-tetrahydro-4-pyridinyl)-1-phenylsulfonylindole] | ≤ 50 | –
13 | CN1CC=C(c2cn(S(=O)(=O)c3ccccc3)c3ccc(Cl)cc23)CC1 [Example 7jj, 5-Chloro-3-(1-methyl-1,2,3,6-tetrahydro-4-pyridinyl)-1-phenylsulfonylindole] | ≤ 5 | –
14 | CN1CC=C(c2cn(C(=O)c3ccccc3)c3ccc(Br)cc23)CC1 [Example 6g, 1-Benzoyl-5-bromo-3-(1-methyl-1,2,3,6-tetrahydro-4-pyridinyl)indole] | ≤ 50 | greater affinity for human 5-HT6 receptor relative to human 5-HT7 receptor (human 5-HT7 receptor): ≥ 60 fold; greater affinity for human 5-HT6 receptor relative to human 5-HT2c receptor (human 5-HT2c receptor): ≥ 60 fold
15 | CN1CC=C(c2cn(S(=O)(=O)c3ccccc3Br)c3ccc(F)cc23)CC1 [Example 7bb, 1-(2-Bromophenylsulfonyl)-5-fluoro-3-(1-methyl-1,2,3,6-tetrahydro-4-pyridinyl)indole] | – | greater affinity for human 5-HT6 receptor relative to human 5-HT7 receptor (human 5-HT7 receptor): ≥ 60 fold; greater affinity for human 5-HT6 receptor relative to human 5-HT2c receptor (human 5-HT2c receptor): ≥ 60 fold
16 | CN1CCC(c2c[nH]c3cc(Cl)ccc23)CC1 [Example 5b, 6-Chloro-3-(1-methyl-4-piperidinyl)-1H-indole] | – | EC50 (human 5-HT6 receptor [1]; 1 μM serotonin, 30 min, read-out: EC50, concentration causing 50% inhibition of the serotonin-stimulated cAMP response): 1900 nM
17 | CN1CC=C(c2cn(S(=O)(=O)c3ccc4ccccc4c3)c3c(F)cc(F)cc23)CC1 [Example 7ap, 5,7-Difluoro-3-(1-methyl-1,2,3,6-tetrahydro-4-pyridinyl)-1-(2-naphthylsulfonyl)indole] | ≤ 5 | –
18 | CN1CC=C(c2cn(S(=O)(=O)c3ccc4ccccc4c3)c3ccc(F)cc23)CC1 [Example 7hh, 5-Fluoro-3-(1-methyl-1,2,3,6-tetrahydro-4-pyridinyl)-1-(2-naphthylsulfonyl)indole] | – | greater affinity for human 5-HT6 receptor relative to human 5-HT7 receptor (human 5-HT7 receptor): ≥ 60 fold; greater affinity for human 5-HT6 receptor relative to human 5-HT2c receptor (human 5-HT2c receptor): ≥ 60 fold
19 | CN1CC=C(c2cn(S(=O)(=O)c3ccccc3)c3ccc(C(F)(F)F)cc23)CC1 [Example 7rr, 3-(1-Methyl-1,2,3,6-tetrahydro-4-pyridinyl)-1-phenylsulfonyl-5-trifluoromethylindole hydrochloride] | ≤ 5 | –
20 | CN1CC=C(c2cn(S(=O)(=O)c3ccccc3)c3c(F)cc(F)cc23)CC1 [Example 7aj, 5,7-Difluoro-3-(1-methyl-1,2,3,6-tetrahydro-4-pyridinyl)-1-phenylsulfonylindole] | ≤ 5 | –
21 | Cc1ccc(S(=O)(=O)n2cc(C3=CCN(C)CC3)c3cc(F)ccc32)cc1 [Example 6b, 5-Fluoro-1-(4-methylphenylsulfonyl)-3-(1-methyl-1,2,3,6-tetrahydro-4-pyridinyl)indole] | – | greater affinity for human 5-HT6 receptor relative to human 5-HT7 receptor (human 5-HT7 receptor): ≥ 60 fold; greater affinity for human 5-HT6 receptor relative to human 5-HT2c receptor (human 5-HT2c receptor): ≥ 60 fold
22 | CN1CC=C(c2cn(C(=O)c3ccccc3Cl)c3ccc(OC4CCCCC4)cc23)CC1 [Example 7aaa, 1-(2-Chlorobenzoyl)-5-cyclohexyloxy-3-(1-methyl-1,2,3,6-tetrahydro-4-pyridinyl) indole] | ≤ 5 | –
23 | CN1CC=C(c2cn(S(=O)(=O)c3ccccc3)c3ccc(F)cc23)CC1 [Example 7ii, 5-Fluoro-3-(1-methyl-1,2,3,6-tetrahydro-4-pyridinyl)-1-phenylsulfonylindole] | ≤ 5 | –
24 | COc1ccc(S(=O)(=O)n2cc(C3=CCN(C)CC3)c3cc(C(F)(F)F)ccc32)cc1 [Example 7vv, 1-(4-Methoxyphenylsulfonyl)-3-(1-methyl-1,2,3,6-tetrahydro-4-pyridinyl)-5-trifluoromethylindole hydrochloride] | ≤ 50 | –
25 | CN1CC=C(c2cn(C(=O)c3ccccc3)c3ccc(Cl)cc23)CC1 [Example 7jjj, 1-Benzoyl-5-chloro-3-(1-methyl-1,2,3,6-tetrahydro-4-pyridinyl)indole hydrochloride] | ≤ 50 | –
26 | CN1CC=C(c2cn(S(=O)(=O)c3ccc(Br)cc3)c3c(F)cc(F)cc23)CC1 [Example 7am, 1-(4-Bromophenylsulfonyl)-5,7-difluoro-3-(1-methyl-1,2,3,6-tetrahydro-4-pyridinyl)indole] | ≤ 5 | –
27 | CN1CCC(c2cn(S(=O)(=O)c3ccccc3)c3ccccc23)CC1 [Example 7uuu, 3-(1-Methyl-4-piperidinyl)-1-phenylsulfonylindole] | – | Ki (human 5-HT6 receptor [2]; read-out: Ki): ≤ 50 nM
